# Experiment: 12 week lifestyle plus metformin intervention in IFG subjects
# Assay type: in vivo, human
# Conditions: 12 weeks lifestyle + metformin 2 g/day, 33 IFG subjects
# Excerpt: 33 subjects with IFG underwent a 12 week intervention including both lifestyle (diet and exercise) changes and drug (metformin, dose: 2 g/day) therapy. At baseline, this study was 49% female with a mean age of 54 and mean BMI of 30.9.
smiles,measurement,value
CN(C)C(=N)N=C(N)N [metformin],"% Decrease from baseline, 2hPG",13.0%
same,"% Decrease from baseline, FPG",9.4%
same,"% Decrease from baseline, Weight",6.8%
